Drawing on patent US20230203004A1, “RSV INHIBITING 3-SUBSTITUTED QUINOLINE AND CINNOLINE DERIVATIVES” (Janssen Sciences Ireland Unlimited Company, priority 2020, published 2023), this text covers EC50 and CC50 for 22 compounds.

One data set has as its system rgRSV224 virus. Briefly: Antiviral activity: rgRSV224 (GFP) replication in HeLa cells. It counts as cell-based, respiratory syncytial virus (RSV). To be noted: human respiratory syncytial virus, HeLa, 72 h, read-out: RSV HELA EC50, HeLa cells, rgRSV224 MOI = 1, GFP expression three days post-virus exposure; averaged data of several repeat experiments. In short, it runs like this: (§1)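 HeLa cells infected with GFP-expressing rgRSV224 at MOI 1 in RPMI/10% FBS, 0.05% DMSO, with 9 serial 4-fold compound dilutions; 3 days at 37 °C, GFP read by laser microscopy for EC50. Cytotoxicity: uninfected HeLa cells, 3 days, cellular ATP (ATPlite) for CC50.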

A short description of data set [1]: Cytotoxicity in HeLa cells (ATP content, ATPlite kit). Format: cell-based. To be noted: human, TOX HELA CC50. In short, it runs like this: as §1
(In general: In ATP-based viability assays light output follows the ATP content of the culture.)

Broadly, the EC50 is the concentration that produces a half-maximal response. The term CC50 denotes the concentration giving 50% cytotoxicity. A lower CC50 goes with greater toxicity to the cells. For `COc1cc(C(=O)NCC(O)(c2cc(C(C)(C)NC(C)=O)c(F)c(-c3ccc(F)cc3)n2)C(F)(F)F)cc2cc(C)nnc12` (single isomer, unassigned; (-)) [compound 235, (-)-N-{2-[4-(2-Acetamidopropan-2-yl)-5-Fluoro-6-(4-Fluorophenyl)Pyridin-2-yl]-3,3,3-Trifluoro-2-Hydroxypropyl}-8-Methoxy-3-Methylcinnoline-6-Carboxamide], in the data set with rgRSV224 virus, the EC50 was determined as 0.00062 µM. In data set [1], this compound gave a CC50 at 3 days of 25 µM.
For `COc1cc(C(=O)NC[C@](O)(c2cc(C(C)(C)O)c(F)c(-c3ccc(C(F)(F)F)cc3)n2)C(F)(F)F)cc2cc(C)nnc12` [compound 274, (-)Methoxy-3-Methyl-N-(3,3,3-Trifluoro-2-(5-Fluoro-4-(2-Hydroxypropan-2-yl)-6-(4-(Trifluoromethyl)Phenyl)pyridin-2-yl)-2-Hydroxypropyl)Cinnoline-6-Carboxamide], the EC50 with rgRSV224 virus came out at 0.00148 µM. The same compound registered a half-maximal cytotoxic concentration (CC50) at 3 days in data set [1] of 11 µM.
The corresponding values for `COc1cc(C(=O)NC[C@@](O)(c2cc(C(C)(C)O)cc(-c3ccc(F)cc3)n2)C(C)(F)F)cc2cc(C)nnc12` [compound 310, (+)-N-(3,3-difluoro-2-(6-(4-fluorophenyl)-4-(2-hydroxypropan-2-yl)pyridin-2-yl)-2-hydroxybutyl)-8-methoxy-3-methylcinnoline-6-carboxamide] are above 1.25 µM and 55 µM.
`[2H]C([2H])([2H])Oc1cc(C(=O)NC[C@](O)(c2cc(C(C)(C)O)c(F)c(-c3ccc(F)cc3)n2)C2CC2)cc2cc(C3CC3)nnc12` [compound 289, (-)Cyclopropyl-N-(2-Cyclopropyl-2-(5-Fluoro-6-(4-Fluorophenyl)-4-(2-Hydroxypropan-2-yl)Pyridin-2-yl)-2-Hydroxyethyl)-8-(Methoxy-d3)Cinnoline-6-Carboxamide]: the EC50 in the data set on rgRSV224 virus was found to be 0.0018 µM. This compound also registered a CC50 at 3 days in data set [1] of 10 µM.
For `COc1cc(C(=O)NC[C@](O)(c2cc(C(C)(C)O)c(F)c(-c3ccc(F)cc3)n2)C(F)(F)F)cc2cc(C(F)F)cnc12` [compound 325, (-)(Difluoromethyl)-8-Methoxy-N-(3,3,3-Trifluoro-2-(5-Fluoro-6-(4-Fluorophenyl)-4-(2-Hydroxypropan-2-yl)Pyridin-2-yl)-2-Hydroxypropyl)Quinoline-6-Carboxamide], the EC50 with rgRSV224 virus was 0.0036 µM. The CC50 at 3 days in data set [1] came to 13 µM.
With `COc1cc(C(=O)NC[C@](O)(c2cc(C(C)(C)O)c(F)c(-c3ccc(F)cc3)n2)C(F)F)cc2cc(C3CC3)nnc12` [compound 293, (-)Cyclopropyl-N-(3,3-Difluoro-2-(5-Fluoro-6-(4-Fluorophenyl)-4-(2-Hydroxypropan-2-yl)Pyridin-2-yl)-2-Hydroxypropyl)-8-Methoxycinnoline-6-Carboxamide], in the data set on rgRSV224 virus, the concentration for a half-maximal effect (EC50) was 0.011 µM. In addition, the half-maximal cytotoxic concentration (CC50) at 3 days in data set [1] stood at 15 µM.
As to `COc1cc(C(=O)NC[C@@](O)(c2cc(C(C)(C)O)c(F)c(-c3ccc(F)cc3)n2)C(F)(F)F)cc2cc(C)nnc12` [compound 334, (+)Methoxy-3-Methyl-N-(3,3,3-Trifluoro-2-(5-Fluoro-6-(4-Fluorophenyl)-4-(2-Hydroxypropan-2-yl)Pyridin-2-yl)-2-Hydroxypropyl)Cinnoline-6-Carboxamide], the EC50 in the data set with rgRSV224 virus is 0.245 µM. This compound had a CC50 at 3 days in data set [1] of 17 µM.
Regarding `Cc1cc2cc(C(=O)NC[C@](O)(c3cc(C(C)(C)O)c(F)c(-c4ccc(F)cc4)n3)C(F)F)cc(OC3CC3)c2nn1` [compound 308, (-)Cyclopropoxy-N-(3,3-Difluoro-2-(5-Fluoro-6-(4-Fluorophenyl)-4-(2-Hydroxypropan-2-yl)Pyridin-2-yl)-2-Hydroxypropyl)-3-Methylcinnoline-6-Carboxamide], the half-maximal effective concentration (EC50) in the data set with rgRSV224 virus stood at 0.0023 µM. Moreover, it took 38 µM to reach half-maximal cytotoxicity in data set [1] (CC50 at 3 days).
As for `COc1cc(C(=O)NC[C@](O)(c2nc(-c3ccc(F)cc3)cc(C(C)(C)O)c2F)C(F)(F)F)cc2cc(C)nnc12` [compound 281, (-)Methoxy-3-Methyl-N-(3,3,3-Trifluoro-2-(3-Fluoro-6-(4-Fluorophenyl)-4-(2-Hydroxypropan-2-yl)Pyridin-2-yl)-2-Hydroxypropyl)Cinnoline-6-Carboxarmide], in the data set with rgRSV224 virus, the EC50 was found to be 0.029 µM. The compound also registered a CC50 at 3 days in data set [1] of 24 µM.
In the case of `COc1cc(C(=O)NC[C@](O)(c2cc(C(C)(C)O)c(F)c(-c3ccc(F)cc3)n2)C2CC2)cc2cc(C(F)F)cnc12` [compound 227, N-{(-)Cyclopropyl[5-Fluoro-6-(4-Fluorophenyl)-4-(2-Hydroxypropanyl)Pyridinyl]Hydroxyethyl}-3-(Difluoromethyl)-8-Methoxyquinoline-6-Carboxamide], the EC50 with rgRSV224 virus worked out at 0.0011 µM. The compound further yielded a CC50 at 3 days in data set [1] of 15 µM.
For `Cc1cc2cc(C(=O)NC[C@](O)(c3cc(C(C)(C)O)cc(-c4ccc(F)cc4)n3)C(F)(F)F)cc(OC3CC3)c2nn1` [compound 291, (-)Cyclopropoxy-3-Methyl-N-(3,3,3-Trifluoro-2-(6-(4-Fluorophenyl)-4-(2-Hydroxypropan-2-yl)Pyridin-2-yl)-2-Hydroxypropyl)Cinnoline-6-Carboxamide], the EC50 in the data set on rgRSV224 virus came out at 0.015 µM. This compound also came in with a half-maximal cytotoxic concentration (CC50) at 3 days in data set [1] of 57 µM.
Take `COc1cc(C(=O)NC[C@](O)(c2cc(C(C)(C)O)c(F)c(-c3ccc(F)c(F)c3)n2)C(F)(F)F)cc2cc(C)nnc12` [compound 239, (-)-N-{2-[6-(3,4-Difluorophenyl)-5-Fluoro-4-(2-Hydroxypropan-2-yl)Pyridin-2-yl]-3,3,3-Trifluoro-2-Hydroxypropyl}-8-Methoxy-3-Methylcinnoline-6-Carboxamide]: the EC50 in the data set on rgRSV224 virus came to 0.0005 µM. Moreover, in data set [1], the midpoint of cytotoxicity, the CC50 at 3 days, lay at 19 µM.
Consider `COc1cc(C(=O)NCC(O)(c2nc(-c3ccc(F)cc3)cc(C(C)(C)O)c2F)C(F)(F)F)cc2cc(C)nnc12` (racemic) [compound 279, (RS)Methoxy-3-Methyl-N-(3,3,3-Trifluoro-2-(3-Fluoro-6-(4-Fluorophenyl)-4-(2-Hydroxypropan-2-yl)Pyridin-2-yl)-2-Hydroxypropyl)Cinnoline-6-Carboxamide], for which the EC50 with rgRSV224 virus is 0.047 µM. Further, half-maximal cytotoxicity in data set [1] (CC50 at 3 days) was put at 16 µM.
Take `COc1cc(C(=O)NC[C@](O)(c2cc(C(C)(C)O)c(F)c(-c3ccc(F)cc3)n2)C2C[C@@H]2F)cc2cc(C)nnc12` (single isomer, unassigned) [compound 302, N-((*S)(5-Fluoro-6-(4-Fluorophenyl)-4-(2-Hydroxypropanyl)Pyridinyl)((1*S.2*S)Fluorocyclopropyl)Hydroxyethyl)-8-Methoxy-3-Methylcinnoline-6-Carboxamide]: the half-maximal effective concentration (EC50) with rgRSV224 virus worked out at 0.0012 µM. Besides, in data set [1], the CC50 at 3 days was above 25 µM.
The corresponding values for `COc1cc(C(=O)NC[C@](O)(c2nc(-c3ccc(F)cc3)c(F)c(C(C)(C)O)c2F)C(F)(F)F)cc2cc(C)cnc12` [compound 201, (-)-N-{2-[3,5-difluoro-6-(4-fluorophenyl)-4-(2-hydroxypropan-2-yl)pyridin-2-yl)-3,3,3-trifluoro-2-hydroxypropyl}-8-methoxy-3-methylquinoline-6-carboxamide] are 0.0026 µM and 43 µM.
For the compound `COc1cc(C(=O)NC[C@](O)(c2cc(C(C)(C)O)c(Cl)c(-c3ccc(F)cc3)n2)C2CC2)cc2cc(C3CC3)nnc12` [compound 282], the EC50 in the data set with rgRSV224 virus came to 0.0032 µM. In addition, the midpoint of cytotoxicity in data set [1], the CC50 at 3 days, lay at 13 µM.
In the case of `COc1cc(C(=O)NC[C@](O)(c2cc(C(C)(C)O)c(F)c(-c3ccc(F)cc3)n2)C(C)(F)F)cc2cc(C)nnc12` [compound 313, (-)-N-(3,3-difluoro-2-(5-fluoro-6-(4-fluorophenyl)-4-(2-hydroxypropan-2-yl)pyridin-2-yl)-2-hydroxybutyl)-8-methoxy-3-methylcinnoline-6-carboxamide], in the data set on rgRSV224 virus, the EC50 turned out to be 0.001 µM. This compound also had a CC50 at 3 days in data set [1] of 42 µM.
`COc1cc(C(=O)NC[C@](O)(c2cc(C(C)(C)O)c(F)c(-c3ccc(F)cc3)n2)C(C)C)cc2cc(C3CC3)nnc12` [compound 283, (-)Cyclopropyl-N-(2-(5-Fluoro-6-(4-Fluorophenyl)-4-(2-Hydroxypropan-2-yl)Pyridin-2-yl)-2-HydroxyMethylbutyl)-8-Methoxycinnoline-6-Carboxamide]: in the data set with rgRSV224 virus, the EC50 was 0.0085 µM. In data set [1], this compound registered a CC50 at 3 days of 12 µM.
For the compound `COc1cc(C(=O)NC[C@](O)(c2cc(C(C)(C)NS(C)(=O)=O)c(F)c(-c3ccc(F)cc3)n2)C(F)(F)F)cc2cc(C)nnc12` [compound 237, (-)Methoxy-3-Methyl-N-{3,3,3-Trifluoro-2-[5-Fluoro-6-(4-Fluorophenyl)-4-{2-[(MethaneSulfonyl)Amino]propan-2-yl}Pyridin-2-yl]-2-Hydroxypropyl}Cinnoline-6-Carboxamide], the EC50 in the data set on rgRSV224 virus was 0.0051 µM. In data set [1], this compound displayed a CC50 at 3 days of 51 µM.
With `Cc1cnc2c(OC3CC3)cc(C(=O)NC[C@](O)(c3cc(C(C)(C)O)c(F)c(-c4ccc(C(F)(F)F)cc4)n3)C3CC3)cc2c1` [compound 224], in the data set on rgRSV224 virus, the EC50 was found to be 0.0017 µM. Besides, the midpoint of cytotoxicity in data set [1], the CC50 at 3 days, lay at 15 µM.
Consider `COc1cc(C(=O)NC[C@](O)(c2nc(-c3ccc(F)cc3)c(Cl)c(C(C)(C)O)c2F)C(F)(F)F)cc2cc(C)c(F)nc12` [compound 212, (-)-N-{2-[5-Chloro-3-Fluoro-6-(4-Fluorophenyl)-4-(2-Hydroxypropan-2-yl)Pyridin-2-yl]-3,3,3-Trifluoro-2-Hydroxypropyl}-2-Fluoro-8-Methoxy-3-Methylquinoline-6-Carboxamide], for which, in the data set with rgRSV224 virus, the EC50 was determined as 0.0071 µM. In addition, the midpoint of cytotoxicity in data set [1], the CC50 at 3 days, lay at 58 µM.
Turning to `COc1cc(C(=O)NC[C@@](O)(c2cc(C(C)(C)O)c(F)c(-c3ccc(F)cc3)n2)C2(F)CC2)cc2cc(C)nnc12` [compound 297], the concentration giving a half-maximal response (EC50) in the data set on rgRSV224 virus came out at 0.058 µM. In data set [1], this compound registered a CC50 at 3 days of 45 µM.
